Source: patent publication US20230083012A1, “DIHYDROPYRIMIDINE DERIVATIVES AND USES THEREOF IN THE TREATMENT OF HBV INFECTION OR OF HBV-INDUCED DISEASES” (priority 2019, published 2023)

What was measured:
HBV = test: Anti-HBV activity in HepG2.2.15 cells (HBV DNA in culture medium by qPCR); format: cell-based; settings: Hepatitis B virus, HepG2.2.15, 144 h, HepG2.2.15 cells, 6 days treatment, HBV DNA in culture medium quantified by real-time PCR; read-out: EC50
Outline: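 Secreted HBV DNA was measured by real-time PCR after 6-day compound exposure of HepG2.2.15 cells (2% FBS, 37 °C, re-dosed after 3 days), giving EC50 from 8-point 1:3 series starting at 10 or 1 uM. Cytotoxicity (CC50) run separately at lower cell density, top 100 uM.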

[1] = Cytotoxicity determination in HepG2.2.15 cells (CCK-8 cell viability); format: cell-based; settings: human, 6 days treatment, CCK-8 assay, highest concentration 100 uM
Outline: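 Viability measured by CCK-8 absorbance (450 nm, 630 nm reference, 2.5 h at 37° C) after six days of treatment, medium and compound renewed on day 3. Top concentration 100 uM, eight threefold dilutions in triplicate; cells plated at 5,000/well in 2% FBS medium; CC50 derived.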

| Structure (SMILES) | EC50 (HBV) | CC50 at 6 days [1] |
| --- | --- | --- |
| CCOC(=O)C1=C(CN2CC(F)(F)[C@H]3[C@@H]2CCN3CCC(C)(C)C(=O)O)NC(c2nccs2)=N[C@@H]1c1ccc(F)c(F)c1C (single isomer, unassigned) [Compound 139, 4-((cis)-4-((6-(3,4-difluoro-2-methylphenyl)-5-(ethoxycarbonyl)-2-(thiazol-2-yl)-3,6-dihydropyrimidin-4-yl)methyl)-6,6-difluorohexahydropyrrolo[3,2-b]pyrrol-1(2H)-yl)-2,2-dimethylbutanoic acid] | 0.0006 µM | 16.1 µM |
| CCOC(=O)C1=C(CN2CC(F)(F)[C@H]3[C@@H]2CCN3CCC(C)(C)C(=O)O)NC(c2nccs2)=N[C@@H]1c1ccc(F)c(F)c1F (single isomer, unassigned) [Compound 140, (cis)-4-(4-((5-(ethoxycarbonyl)-2-(thiazol-2-yl)-6-(2,3,4-trifluorophenyl)-3,6-dihydropyrimidin-4-yl)methyl)-6,6-difluorohexahydropyrrolo[3,2-b]pyrrol-1(2H)-yl)-2,2-dimethylbutanoic acid] | 0.007 µM | 36.7 µM |
| CCOC(=O)C1=C(CN2CC(F)(F)[C@H]3[C@@H]2CCN3CCC(C)(C)C(=O)O)NC(c2nccs2)=N[C@H]1c1ccc(F)cc1Cl (single isomer, unassigned) [Compound 141] | 0.0035 µM | 26.7 µM |
| CCOC(=O)C1=C(CN2CC(F)(F)[C@H]3[C@@H]2CCN3CCC(C)(C)C(=O)O)NC(c2nccs2)=N[C@H]1c1cccc(F)c1F (single isomer, unassigned) [Compound 142] | 0.008 µM | > 25 µM |
| CCOC(=O)C1=C(CN2CC(F)(F)[C@H]3[C@@H]2CCN3C[C@H]2C[C@H](C(=O)O)C2)NC(c2nccs2)=N[C@H]1c1cccc(F)c1C (single isomer, unassigned) [Compound 143A] | 0.0011 µM | 19.2 µM |
| CCOC(=O)C1=C(CN2CC(F)(F)[C@H]3[C@@H]2CCN3C[C@H]2C[C@@H](C(=O)O)C2)NC(c2nccs2)=N[C@H]1c1cccc(F)c1C (single isomer, unassigned) [Compound 143B] | 0.0046 µM | 22.8 µM |
| CCOC(=O)C1=C(CN2CC(F)(F)[C@H]3[C@@H]2CCN3CCCC(C)(C)C(=O)O)NC(c2nccs2)=N[C@H]1c1cccc(F)c1C (single isomer, unassigned) [Compound 144] | 0.0198 µM | 20.2 µM |
| CCOC(=O)C1=C(CN2CC(F)(F)[C@H]3[C@@H]2CCN3CCC(C)(C)C(=O)O)NC(c2nccs2)=N[C@H]1c1cccc(F)c1Cl (single isomer, unassigned) [Compound 145, 4-((cis)-4-((6-(2-chloro-3-fluorophenyl)-5-(ethoxycarbonyl)-2-(thiazol-2-yl)-3,6-dihydropyrimidin-4-yl)methyl)-6,6-difluorohexahydropyrrolo[3,2-b]pyrrol-1(2H)-yl)-2,2-dimethylbutanoic acid] | 0.0009 µM | 26 µM |
| CCOC(=O)C1=C(CN2CC(F)(F)[C@H]3[C@@H]2CCN3CCC(C)(C)C(=O)O)NC(c2nccn2C)=N[C@H]1c1cccc(F)c1C (single isomer, unassigned) [Compound 146, 4-((cis)-4-((5-(Ethoxycarbonyl)-6-(3-fluoro-2-methylphenyl)-2-(1-methyl-1H-imidazol-2-yl)-3,6-dihydropyrimidin-4-yl)methyl)-6,6-difluorohexahydropyrrolo[3,2-b]pyrrol-1(2H)-yl)-2,2-dimethylbutanoic acid] | 0.0131 µM | 32.2 µM |
| CCOC(=O)C1=C(CN2CC(F)(F)[C@H]3[C@@H]2CCN3CCC(C)C(=O)O)NC(c2nccs2)=N[C@H]1c1cccc(F)c1C (single isomer, unassigned) [Compound 147] | < 0.0005 µM | 34.6 µM |
| CCOC(=O)C1=C(CN2CC(F)(F)[C@H]3[C@@H]2CCN3CCOC(C)C(=O)O)NC(c2nccs2)=N[C@H]1c1cccc(F)c1C (single isomer, unassigned) [Compound 148] | 0.0073 µM | 34.1 µM |
| CCOC(=O)C1=C(CN2CC(F)(F)[C@H]3[C@@H]2CCN3C[C@@H](C)C(=O)O)NC(c2nccs2)=N[C@H]1c1cccc(F)c1Cl (single isomer, unassigned) [Compound 149A] | < 0.0005 µM | 21.8 µM |
| CCOC(=O)C1=C(CN2CC(F)(F)[C@H]3[C@@H]2CCN3C[C@H](C)C(=O)O)NC(c2nccs2)=N[C@H]1c1cccc(F)c1Cl (single isomer, unassigned) [Compound 149B] | 0.0019 µM | 34.1 µM |
| CCOC(=O)C1=C(CN2CC(F)(F)[C@H]3[C@@H]2CCN3c2ncc(C(=O)O)cn2)NC(c2nccs2)=N[C@H]1c1cccc(F)c1C (single isomer, unassigned) [Compound 150] | 0.057 µM | 15 µM |
| CCCOC(=O)C1=C(CN2CC(F)(F)[C@H]3[C@@H]2CCN3CCC(C)(C)C(=O)O)NC(c2nccs2)=N[C@H]1c1cccc(F)c1C (single isomer, unassigned) [Compound 151] | 0.0187 µM | 9.3 µM |
| Cc1c(F)cccc1[C@@H]1N=C(c2nccs2)NC(CN2CC(F)(F)[C@H]3[C@@H]2CCN3CCC(C)(C)C(=O)O)=C1C(=O)OC(C)C (single isomer, unassigned) [Compound 152] | 0.0618 µM | 12.7 µM |
| CCOC(=O)C1=C(CN2CC(F)(F)[C@H]3[C@@H]2CC(C)N3CCC(C)(C)C(=O)O)NC(c2nccs2)=N[C@H]1c1cccc(F)c1C (single isomer, unassigned) [Compound 153] | 0.006 µM | 21.8 µM |
| CCOC(=O)C1=C(CN2CC(F)(F)[C@H]3[C@@H]2CC2(CC2)N3CCC(C)(C)C(=O)O)NC(c2nccs2)=N[C@H]1c1cccc(F)c1C (single isomer, unassigned) [Compound 154] | 0.071 µM | 48.3 µM |
| CCOC(=O)C1=C(CN2CC(F)(F)[C@H]3[C@@H]2CCN3CC23CC(C(=O)O)(C2)C3)NC(c2nccs2)=N[C@H]1c1cccc(F)c1C (single isomer, unassigned) [Compound 155] | 0.0007 µM | 10 µM |
| CCOC(=O)C1=C(CN2CC(F)(F)[C@H]3[C@@H]2CC(=O)N3CCCC(C)(C)C(=O)O)NC(c2nccs2)=N[C@H]1c1cccc(F)c1C (single isomer, unassigned) [Compound 156] | 0.063 µM | 10.3 µM |
| [2H]C1([2H])C[C@H]2[C@@H](N1CCC(C)(C)C(=O)O)C(F)(F)CN2CC1=C(C(=O)OCC)[C@H](c2cccc(F)c2C)N=C(c2nccs2)N1 (single isomer, unassigned) [Compound 157] | 0.0008 µM | 24.8 µM |
| CCOC(=O)C1=C(CN2CC(F)(F)[C@H]3[C@@H]2CC(=O)N3[C@H]2CC[C@@H](C(=O)O)CC2)NC(c2nccs2)=N[C@H]1c1cccc(F)c1C (single isomer, unassigned) [Compound 158A] | 0.0531 µM | 27.9 µM |
| CCOC(=O)C1=C(CN2CC(F)(F)[C@H]3[C@@H]2CC(=O)N3[C@H]2CC[C@H](C(=O)O)CC2)NC(c2nccs2)=N[C@H]1c1cccc(F)c1C (single isomer, unassigned) [Compound 158B] | 0.0526 µM | 16.6 µM |
| CCOC(=O)C1=C(CN2CC(F)(F)[C@H]3[C@@H]2CCN3CC(C)(C)C(=O)O)NC(c2nccs2)=N[C@@H]1c1ccc(F)nc1C (single isomer, unassigned) [Compound 159, 3-((cis)-4-((5-(ethoxycarbonyl)-6-(6-fluoro-2-methylpyridin-3-yl)-2-(thiazol-2-yl)-3,6-dihydropyrimidin-4-yl)methyl)-6,6-difluorohexahydropyrrolo[3,2-b]pyrrol-1(2H)-yl)-2,2-dimethylpropanoic acid] | 0.0006 µM | 75.7 µM |
| COC(=O)C1=C(CN2CC(F)(F)[C@@H]3[C@H]2CON3CCC(C)(C)C(=O)O)NC(c2nccs2)=N[C@H]1c1cccc(F)c1C (single isomer, unassigned) [Compound 160] | 0.014 µM | 100 µM |
| COC(=O)C1=C(CN2CC(F)(F)[C@@H]3[C@H]2CON3CCC(C)(C)C(=O)O)NC(c2nccs2)=N[C@H]1c1ccc(F)c(F)c1C (single isomer, unassigned) [Compound 161, (cis)-4-(4-((6-(3,4-difluoro-2-methylphenyl)-5-(methoxycarbonyl)-2-(thiazol-2-yl)-3,6-dihydropyrimidin-4-yl)methyl)-6,6-difluorohexahydro-1H-pyrrolo[3,2-c]isoxazol-1-yl)-2,2-dimethylbutanoic acid] | 0.008 µM | > 50 µM |
| COC(=O)C1=C(CN2CC(F)(F)[C@@H]3[C@H]2CON3CCC(C)(C)C(=O)O)NC(c2nccs2)=N[C@H]1c1ccc(F)c(F)c1Cl (single isomer, unassigned) [Compound 162, (cis)-4-(4-((6-(2-chloro-3,4-difluorophenyl)-5-(methoxycarbonyl)-2-(thiazol-2-yl)-3,6-dihydropyrimidin-4-yl)methyl)-6,6-difluorohexahydro-1H-pyrrolo[3,2-c]isoxazol-1-yl)-2,2-dimethylbutanoic acid] | 0.005 µM | 50 µM |
| CCOC(=O)C1=C(CN2CC(F)(F)[C@@H]3[C@H]2CON3CCC(C)(C)C(=O)O)NC(c2nccs2)=N[C@H]1c1ccc(F)c(F)c1Cl (single isomer, unassigned) [Compound 163, (cis)-4-(4-((6-(2-chloro-3,4-difluorophenyl)-5-(ethoxycarbonyl)-2-(thiazol-2-yl)-3,6-dihydropyrimidin-4-yl)methyl)-6,6-difluorohexahydro-1H-pyrrolo[3,2-c]isoxazol-1-yl)-2,2-dimethylbutanoic acid] | 0.002 µM | 45.6 µM |
